Experimental data: patent US20200222418A1, “USE OF PHENOTHIAZINE DERIVATIVE IN THE TREATMENT OF INFECTION CAUSED BY BACTERIA CARRYING TYPE IV PILI” (priority 2017, published 2020)

What was measured:
[1] = tested on: HDMECs infected with N. meningitidis Nm2C4.3; assay: Basement membrane (Gelatin-FITC matrix) degradation by infected endothelial cells; assay type: cell-based, human; settings: 150 μg/ml Gentamicin, 24 h post-infection
Experimental: (A) Experimental procedure: HBMECs grown on a fluorescent matrix (Gelatin-Fitc) were colonized by N. meningitidis for 6 h. They were then treated with 150 μg/ml gentamicin for 1 h, then 15 min with Trifluoperazine (50 μM) (or solvent alone as control) and incubated for further 15 h in the presence of 150 μg/ml gentamicin. (B) Fluorescence microscopy was used to visualize cells stained with labelled phalloidin and the fluorescent matrix. The presence of dark zones corresponds to zones of matrix degradation. (C) Quantification of the percentage of matrix degradation, using Image J software.
Plastic coverslips (13 mm diameter) (Nalgen #174950) were washed in ethanol 70%, dried then coated with poly-L-lysine 1 mg/ml for 20 min at room temperature. After one wash in sterile PBS, 0.5% Glutaraldehyde was added for 15 min at room temperature. After three washes in PBS, Gelatin-FITC (0.2 mg/ml Invitrogen #G13187) was added for 10 minutes at room temperature in the dark. Coverslip were then washed with sterile PBS and treated with 5 mg/ml sodium borohydride for 3 min. After three washes in sterile PBS, 10^5 HDMECs (PromoCell #C-12210) were seeded per well in their PromoCell culture medium and incubated overnight at 37° C. 5% CO2. The day after, cells were infected with N. meningitidis Nm2C4.3, as above described. […] Quantifications were performed using ImageJ software (NIH).

[2] = tested on: Enteropathogenic Escherichia coli (EPEC ΔescN-GFP) microcolonies on HBMEC; assay: Dispersion of EPEC microcolonies on HBMEC; assay type: cell-based; settings: 10 to 50 μM, 30 min
Experimental: Human […] microvascular endothelial cells (HBMEC) were infected with a GFP-expressing mutant Enteropathogenic Escherichia coli, which lacks the ATPase escN (EPEC ΔescN-GFP) for 2 h, then treated with Trifluoperazine (10-50 μM) for 30 minutes, before fixation and immunofluorescence analysis using Alexa Fluor 633 Phalloidin. (A) Representative fluorescence microscopy showing bacterial colony (white dots) formed at the surface of the endothelial cells. (B) Quantification of the bacterial colonization was performed using Image J software.
HBMEC were grown on Thermanox coverslips coated with gelatin 2% for 2 days to reach confluency. Cells were then infected for 1 h with a GFP-expressing mutant Enteropathogenic Escherichia coli (EPEC), which lacks the ATPase escN. This strain is unable to translocate effector proteins and is more prone to form pilus-dependent microcolony at the host cell surface (Jensen et al., 2015). Cells were then washed three times with medium to remove non-adherent bacteria and infection was pursued for 1 extra hour, to allow bacterial growth at the endothelial cell surface to form microcolonies. Trifluoperazine was then added to obtain final concentrations of 10, 20, 30 and 50 μM. After incubation for 30 minutes, cells were washed and fixed in 4% Paraformaldehyde for 10 min, washed three times with PBS. […] Quantification was done with ImageJ software (NIH). […]

[3] = tested on: N. meningitidis 2C4.3 wild type strain type IV pili; assay: Surface expression of type IV pili by transmission electron microscopy, wild type; assay type: cell-based, Neisseria meningitidis; settings: 50 μM Trifluoperazine for 30 minutes, wild type 2C4.3
Experimental: N. meningitidis 2C4.3 wild type strain and the isogenic derivative mutant PilT ([…]PiIT) were grown in liquid culture […] electron microscopy. Arrows point at bundles of type IV pili expressed at the bacterial surface.
N. meninigitidis 2C4.3 strain and the isogenic derivative mutant PilT, where the pilT gene was interrupted by an erythromycin-resistance cassette (Pujol et al., 1999), were grown in suspension in DMEM medium supplemented with 10% heat-inactivated fetal calf serum. PilT belongs to a highly conserved protein family homologous to AAA-type motor proteins and is proposed to cause the retraction of type IV pili by disassembling the pilin subunits at the base of the fiber (Morand et al., 2004). […] The effect on bacterial aggregates were visualized over time using a phase-contrast microscope or the bacterial suspensions were fixed in 4% Paraformaldehyde for 10 min, centrifuged at 1000 rpm for 5 minutes and the bacterial pellets washed in PBS. After negative staining with 1% phosphotungstic acid, bacteria were analysed by transmission electron microscopy, using a JEOL 1011 microscope.

[4] = tested on: HBMECs infected with meningococci; assay: PECAM-1 recruitment at bacterial adhesion sites in infected HBMEC; assay type: cell-based, human; settings: 5 μM for 2 h during infection
Experimental: (A) Monolayers of HBMECs were non-infected or infected for 2 h with meningococci and the effect on the localisation of the endothelial cell junction proteins PECAM-1 and […]-catenin was analysed by immunofluorescence analysis. Arrows point at PECAM-1 molecules recruited at bacterial adhesion sites (B) HBMECs were infected for 2 h with meningococci in the presence or in the absence of 5 μM Trifluoperazine and the effect on junctional PECAM-1 and on the endothelial cell cytoskeleton remodelling (Ezrin, Actin) was analysed by immunofluorescence analysis. (C) Quantification of Actin and PECAM-1 recruitment at sites of bacterial adhesion was performed using Image J software.
When indicated, HBMECs were grown on Thermanox coverslips coated with gelatin 2% for 2 days to reach confluency. Cells were then infected as above described in the presence or in the absence of 5 μM Trifluoperazine for 2 h. Cells were washed and fixed in 4% paraformaldehyde and immunolabelling was performed with a polyclonal antisera raised anti-Nm2C4.3 strain, anti-human PECAM-1 mouse monoclonal, clone HEC7 (ABCAM ab119339) or rabbit polyclonal 177 raised against PECAM-1, obtained from WA Muller (Northwestern University, Chicago, Ill., US), anti-0 catenin (05-482, UBI), polyclonal antisera raised against Ezrin, Alexa Fluor 633 Phalloidin. […] Quantifications were done using ImageJ software (NIH).

## CN[C@@H]1[C@@H](O)C(O[C@@H]2[C@@H](O)[C@H](O[C@H]3O[C@H]([C@@H](C)NC)CC[C@H]3N)[C@@H](N)C[C@H]2N)OC[C@]1(C)O (stereo partly drawn) [Gentamicin, (3R,4R,5R)-2-{[(1S,2S,3R,4S,6R)-4,6-diamino-3-{[(2R,3R,6S)-3-amino-6-[(1R)-1-(methylamino)ethyl]oxan-2-yl]oxy}-2-hydroxycyclohexyl]oxy}-5-methyl-4-(methylamino)oxane-3,5-diol]
[1]
  degradation of the basement membrane: about 20%

## CN1CCN(CCCN2c3ccccc3Sc3ccc(C(F)(F)F)cc32)CC1 [Trifluoperazine]
[2]
  dispersion of EPEC microcolonies at the endothelial cell surface: induced the dispersion of these microbial colonies in a dose-dependent manner
[3]
  type IV pili expressed on bacterial surface: no longer observed
[4]
  PECAM-1 recruitment at bacterial adhesion sites: prevented PECAM-1 recruitment
  bacterial colonization: did not affect bacterial colonization
